The text below walks through data of US20240150321A1, “PYRAZOLYLSULFONAMIDE COMPOUNDS AND THEIR USE IN THERAPY” (HOTSPOT THERAPEUTICS, INC., priority 2022, published 2024).

Structures are written as SMILES. Like-named read-outs stand apart in the source and are kept apart here.

The target of experiment [1] is Avi-tagged FL MALT-1 (Homo sapiens (Human), UniProt Q9UDY8). The experiment in a line: MALT-1 Fluorogenic Peptide Cleavage Assay (MALT1 inhibition assay). In kind it is biochemical. The note with it: Ac-LRSR-AMC peptide substrate, 30 min pre-incubation, 90 min reaction at room temperature. An outline of the steps: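 Full-length Avi-tagged human MALT-1 (40 nM working stock) pre-incubated 30 min at RT with compound in 25 mM HEPES pH 6.89, 660 mM sodium citrate, 1 mM TCEP, […], 0.05% CHAPS, 2% DMSO. Ac-LRSR-AMC added at Km (50 μM working stock) or 10×Km (280 μM working stock); 90 min at RT, AMC fluorescence (ex 342/em 441 nm), IC50 from % inhibition curves.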
Chain of Avi-tagged FL MALT-1 (Q9UDY8 whole entry): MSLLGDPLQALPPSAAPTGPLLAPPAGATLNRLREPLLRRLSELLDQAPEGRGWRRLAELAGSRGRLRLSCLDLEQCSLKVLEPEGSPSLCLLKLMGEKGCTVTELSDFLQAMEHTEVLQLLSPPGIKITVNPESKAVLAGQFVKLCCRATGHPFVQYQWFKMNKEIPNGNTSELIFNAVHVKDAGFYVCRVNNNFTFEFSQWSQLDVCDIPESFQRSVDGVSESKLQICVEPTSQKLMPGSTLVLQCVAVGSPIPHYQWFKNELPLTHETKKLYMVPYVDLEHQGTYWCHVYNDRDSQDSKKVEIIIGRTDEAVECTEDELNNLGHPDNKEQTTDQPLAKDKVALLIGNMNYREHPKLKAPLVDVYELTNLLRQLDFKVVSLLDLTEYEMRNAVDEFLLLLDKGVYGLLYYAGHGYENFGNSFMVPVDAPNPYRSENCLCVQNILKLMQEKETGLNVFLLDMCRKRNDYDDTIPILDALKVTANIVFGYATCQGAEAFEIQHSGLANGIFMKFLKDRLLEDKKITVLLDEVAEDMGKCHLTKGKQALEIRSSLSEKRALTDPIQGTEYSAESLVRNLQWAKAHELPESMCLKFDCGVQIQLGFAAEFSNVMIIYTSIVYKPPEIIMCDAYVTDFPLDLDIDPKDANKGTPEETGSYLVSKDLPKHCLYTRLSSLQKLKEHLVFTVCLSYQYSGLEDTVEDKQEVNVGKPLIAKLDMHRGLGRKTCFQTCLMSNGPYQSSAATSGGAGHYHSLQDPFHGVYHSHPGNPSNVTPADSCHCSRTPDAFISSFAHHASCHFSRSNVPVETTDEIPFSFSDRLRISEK

For experiment [2], the system named is NF-kB reporter in Jurkat cells. The experiment in a line: NF-kB reporter assay in Jurkat cells stimulated with aCD3/aCD28/PMA. Format: cell-based. The note with it: read-out: NF-kB Reporter Assay IC50, Jurkat cells, 1 hr compound pre-incubation, aCD3/aCD28/PMA stimulation 4 hr, One-Glo readout. An outline of the steps: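 Jurkat cells (25,000/well, serum-free RPMI) were pre-incubated 1 h at 37° C with serially diluted compound, then stimulated 4 h with aCD3/aCD28/PMA at final […]. NF-kB reporter activity was read by One-Glo luminescence; IC50 values reported.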
On the technique in general: A reporter such as luciferase makes a cellular process visible.

As for `CCC(O)c1ccnc(-n2cc(S(=O)(=O)Nc3c(OC)ccc4cnn(C)c34)cn2)c1` (single isomer, unassigned) [Compound I-280, 1-(4-(1-hydroxypropyl)pyridin-2-yl)-N-(6-methoxy-1-methyl-1H-indazol-7-yl)-1H-pyrazole-4-sulfonamide], the IC50 (commonly the concentration needed to halve the response being measured) in experiment [1] was 400 to 1000 nM; in experiment [2], less than 400 nM.
`COC1(c2ccnc(-n3cc(S(=O)(=O)Nc4cccc5cnn(C)c45)cn3)c2)CCOCC1` [Compound I-131, 1-(4-(4-methoxytetrahydro-2H-pyran-4-yl)pyridin-2-yl)-N-(1-methyl-1H-indazol-7-yl)-1H-pyrazole-4-sulfonamide]: the results for the IC50 in experiment [1] and in experiment [2] (Homo sapiens) were greater than 2500 nM and less than 400 nM, respectively.
On to `COc1ccc2cnn(C)c2c1NS(=O)(=O)c1cnn(-c2cc(C(F)(F)F)nn2C)c1` [Compound I-242], for which the results for the IC50 in experiment [1] and in experiment [2] (Homo sapiens) were greater than 2500 nM and 1000 to 2500 nM, respectively.
With `[2H]C([2H])([2H])n1ncc2ccc(OC)c(N(C)S(=O)(=O)c3cnn(-c4cc(C(F)(F)F)ccn4)c3)c21` [Compound I-336, N-(6-methoxy-1-(methyl-d3)-1H-indazol-7-yl)-N-methyl-1-(4-(trifluoromethyl)pyridin-2-yl)-1H-pyrazole-4-sulfonamide], the IC50 in experiment [1] was no more than 400 nM; in experiment [2] (Homo sapiens) it was less than 400 nM.
Taken in the same sequence, the figures for `COc1ccc2cnn(C)c2c1NS(=O)(=O)c1cnn(-c2cc(C3(O)CC(C)C3)ccn2)c1` (centres unmarked) [Compound I-143, 1-(4-(1-hydroxy-3-methylcyclobutyl)pyridin-2-yl)-N-(6-methoxy-1-methyl-1H-indazol-7-yl)-1H-pyrazole-4-sulfonamide] were 1000 to 2500 nM and less than 400 nM.
On to `COc1ccc2cnn(C)c2c1NS(=O)(=O)c1cnn(-c2cc(C3(F)COC3)ccn2)c1` [Compound I-69, 1-(4-(3-Fluorooxetan-3-yl)Pyridin-2-yl)-N-(6-Methoxy-1-Methyl-1H-Indazol-7-yl)-1H-Pyrazole-4-Sulfonamide], for which the IC50 in experiment [1] is no more than 400 nM; in experiment [2] (Homo sapiens) it was less than 400 nM.
For the compound `COc1ncc2cnn(C)c2c1NS(=O)(=O)c1cnn(-c2cc(N3CC(C)C3)ccn2)c1` [Compound I-397], the IC50 in experiment [1] is 1000 to 2500 nM; in experiment [2] (Homo sapiens), less than 400 nM.
Taken in the same sequence, the figures for `COc1ccc2cnn(C)c2c1NS(=O)(=O)c1cnn(-c2cc(N3CCCC3)ccn2)c1` [Compound I-381, N-(6-methoxy-1-methylindazol-7-yl)-1-[4-(pyrrolidin-1-yl)pyridin-2-yl]pyrazole-4-sulfonamide] were 400 to 1000 nM and less than 400 nM.
Regarding `Cc1ccc2cnn(C)c2c1NS(=O)(=O)c1cnn(-c2cc(C(F)(F)F)ccn2)c1` [Compound I-60, N-(1,6-Dimethyl-1H-Indazol-7-yl)-1-(4-(Trifluoromethyl) Pyridin-2-yl)-1H-Pyrazole-4-Sulfonamide], the IC50 was no more than 400 nM in experiment [1] and less than 400 nM in experiment [2] (Homo sapiens).
On the same counts, the results for `CCc1ccc2cnn(C)c2c1NS(=O)(=O)c1cn(-c2ccnc(C(F)(F)F)c2)nc1C` [Compound I-29, N-(6-Ethyl-1-Methyl-1H-Indazol-7-yl)-3-Methyl-1-(2-(Trifluoromethyl)Pyridin-4-yl)-1H-Pyrazole-4-Sulfonamide] are no more than 400 nM and 400 to 1000 nM.
On the same counts, the results for `COc1ccc2cnn(C)c2c1NS(=O)(=O)c1cnn(-c2cnn3c2OCCC3)c1` [Compound I-467, N-(6-methoxy-1-methylindazol-7-yl)-1-{5H,6H,7H-pyrazolo[3,2-b] [1,3]oxazin-3-yl} pyrazole-4-sulfonamide] are greater than 2500 nM and greater than 2500 nM.
On the same counts, the results for `COc1ncc2cnn(C)c2c1NS(=O)(=O)c1cnn(-c2cc(N3CCC(F)(F)C3)ccn2)c1` [Compound I-428, 1-(4-(3,3-difluoropyrrolidin-1-yl)pyridin-2-yl)-N-(6-methoxy-1-methyl-1H-pyrazolo[4,3-c]pyridin-7-yl)-1H-pyrazole-4-sulfonamide] are 400 to 1000 nM and less than 400 nM.
Consider `CC[C@](C)(OC)c1ccnc(-n2cc(S(=O)(=O)Nc3cccc4cnn(C)c34)cn2)c1` (stereo in doubt) [Compound I-313, 1-(4-(2-methoxybutan-2-yl)pyridin-2-yl)-N-(1-methyl-1H-indazol-7-yl)-1H-pyrazole-4-sulfonamide], for which the IC50 in experiment [1] was greater than 2500 nM; in experiment [2] (Homo sapiens), less than 400 nM.
On to `C[C@H]1CN(c2ccnc(-n3cc(S(=O)(=O)Nc4cccc5cnn(C)c45)cn3)c2)C(=O)N1C` [Compound I-346], for which the results for the IC50 in experiment [1] and in experiment [2] (Homo sapiens) were greater than 2500 nM and less than 400 nM, respectively.
Taken in the same sequence, the figures for `O=S(=O)(Nc1cccc2cnn(C(F)F)c12)c1cnn(-c2cc(C(F)F)ccn2)c1` [Compound I-108, N-[1-(difluoromethyl)indazol-7-yl]-1-[4-(difluoromethyl)pyridin-2-yl]pyrazole-4-sulfonamide] were greater than 2500 nM and greater than 2500 nM.
In the case of `Cn1ncc2cccc(NS(=O)(=O)c3cnn(-c4cc(C5(F)CC(F)C5)ccn4)c3)c21` (centres unmarked) [Compound I-112, 1-(4-(1,3-difluorocyclobutyl)pyridin-2-yl)-N-(1-methyl-1H-indazol-7-yl)-1H-pyrazole-4-sulfonamide], the IC50 was greater than 2500 nM in experiment [1] and less than 400 nM in experiment [2] (Homo sapiens).
On the same counts, the results for `COc1ccc2cnn(C)c2c1NS(=O)(=O)c1cnn(-c2cnn3c2COCCC3)c1` [Compound I-455, N-(6-methoxy-1-methylindazol-7-yl)-1-{4H,6H,7H,8H-pyrazolo[3,2-c][1,4]oxazepin-3-yl}pyrazole-4-sulfonamide] are greater than 2500 nM and 1000 to 2500 nM.
Taken in the same sequence, the figures for `CCC(CC)(OC)c1ccnc(-n2cc(S(=O)(=O)Nc3c(OC)ccc4cnn(C)c34)cn2)c1` [Compound I-299, N-(6-Methoxy-1-Methyl-1H-Indazol-7-yl)-1-(4-(3-Methoxypentan-3-yl)Pyridin-2-yl)-1H-Pyrazole-4-Sulfonamide] were no more than 400 nM and 400 to 1000 nM.
As for `COC1(c2ccnc(-n3cc(S(=O)(=O)Nc4cccc5cnn(C)c45)cn3)c2)CC(C)C1` (centres unmarked) [Compound I-362, 1-(4-(1-methoxy-3-methylcyclobutyl)pyridin-2-yl)-N-(1-methyl-1H-indazol-7-yl)-1H-pyrazole-4-sulfonamide], the IC50 in experiment [1] was greater than 2500 nM; in experiment [2] (Homo sapiens), less than 400 nM.
On the same counts, the results for `C=C(CO)c1ccnc(-n2cc(S(=O)(=O)Nc3c(OC)ccc4cnn(C)c34)cn2)c1` [Compound I-68, 1-(4-(3-Hydroxyprop-1-EN-2-yl)Pyridin-2-yl)-N-(6-Methoxy-1-Methyl-1H-Indazol-7-yl)-1H-Pyrazole-4-Sulfonamide] are no more than 400 nM and less than 400 nM.
On the same counts, the results for `Cn1ncc2ccc(C3CC3)c(NS(=O)(=O)c3cnn(-c4cncc(C(F)(F)F)c4)c3)c21` [Compound I-18] are no more than 400 nM and 400 to 1000 nM.
Taken in the same sequence, the figures for `COc1ccc2[nH]nc(C)c2c1N(C)S(=O)(=O)c1cnn(-c2cc(C(F)(F)F)ccn2)c1` [Compound I-82, N-(5-Methoxy-3-Methyl-1H-Indazol-4-yl)-N-Methyl-1-(4-(Trifluoromethyl)Pyridin-2-yl)-1H-Pyrazole-4-Sulfonamide] were no more than 400 nM and less than 400 nM.
